Laboratory results: ChEMBL document CHEMBL3044826, “Design, synthesis and biological evaluation of some novel substituted 2-mercapto-3-phenethylquinazolines as antitumor agents” (2013)

What was measured:
Assay type in all cases: functional
[1] = tested on: OVCAR-8; experiment: Cytotoxicity against Homo sapiens (human) OVCAR8 cells assessed as growth inhibition at 10 uM after 48 hr by coulter counter analysis; conditions: OVCAR-8, 48 h, read-out: GI
[2] = Cytotoxicity against Homo sapiens (human) NCI-ADR-RES cells assessed as growth inhibition at 10 uM after 48 hr by coulter counter analysis; conditions: read-out: GI
[3] = tested on: BT-549; experiment: Cytotoxicity against Homo sapiens (human) BT549 cells assessed as growth inhibition at 10 uM after 48 hr by coulter counter analysis; conditions: BT-549, 48 h, read-out: GI
[4] = tested on: U-251; experiment: Cytotoxicity against Homo sapiens (human) U251 cells assessed as growth inhibition at 10 uM after 48 hr by coulter counter analysis; conditions: U-251, 48 h, read-out: GI
[5] = tested on: SNB-19; experiment: Cytotoxicity against Homo sapiens (human) SNB19 cells assessed as growth inhibition at 10 uM after 48 hr by coulter counter analysis; conditions: SNB-19, 48 h, read-out: GI
[6] = tested on: KM12; experiment: Cytotoxicity against Homo sapiens (human) KM12 cells assessed as growth inhibition at 10 uM after 48 hr by coulter counter analysis; conditions: KM12, 48 h, read-out: GI
[7] = tested on: A549; experiment: Cytotoxicity against Homo sapiens (human) A549 cells assessed as growth inhibition at 10 uM after 48 hr by coulter counter analysis; conditions: A549, 48 h, read-out: GI
[8] = tested on: EKVX; experiment: Cytotoxicity against Homo sapiens (human) EKVX cells assessed as growth inhibition at 10 uM after 48 hr by coulter counter analysis; conditions: read-out: GI
[9] = tested on: M14; experiment: Cytotoxicity against Homo sapiens (human) M14 cells assessed as growth inhibition at 10 uM after 48 hr by coulter counter analysis; conditions: M14, 48 h, read-out: GI
[10] = tested on: ACHN; experiment: Cytotoxicity against Homo sapiens (human) ACHN cells assessed as growth inhibition at 10 uM after 48 hr by coulter counter analysis; conditions: read-out: GI
[11] = tested on: SW-620; experiment: Cytotoxicity against Homo sapiens (human) SW620 cells assessed as growth inhibition at 10 uM after 48 hr by coulter counter analysis; conditions: SW-620, 48 h, read-out: GI
[12] = tested on: NCI-H322M; experiment: Cytotoxicity against Homo sapiens (human) NCI-H322M cells assessed as growth inhibition at 10 uM after 48 hr by coulter counter analysis; conditions: read-out: GI
[13] = tested on: A498; experiment: Cytotoxicity against Homo sapiens (human) A498 cells assessed as growth inhibition at 10 uM after 48 hr by coulter counter analysis; conditions: A498, 48 h, read-out: GI
[14] = tested on: MDA-MB-435; experiment: Cytotoxicity against Homo sapiens (human) MDA-MB-435 cells assessed as growth inhibition at 10 uM after 48 hr by coulter counter analysis; conditions: MDA-MB-435, 48 h, read-out: GI
[15] = tested on: UACC-62; experiment: Cytotoxicity against Homo sapiens (human) UACC62 cells assessed as growth inhibition at 10 uM after 48 hr by coulter counter analysis; conditions: UACC-62, 48 h, read-out: GI
[16] = tested on: PC-3; experiment: Cytotoxicity against Homo sapiens (human) PC3 cells assessed as growth inhibition at 10 uM after 48 hr by coulter counter analysis; conditions: PC-3, 48 h, read-out: GI
[17] = tested on: MDA-MB-231; experiment: Cytotoxicity against Homo sapiens (human) MDA-MB-231 cells assessed as growth inhibition at 10 uM after 48 hr by coulter counter analysis; conditions: MDA-MB-231, 48 h, read-out: GI
[18] = tested on: SF-295; experiment: Cytotoxicity against Homo sapiens (human) SF295 cells assessed as growth inhibition at 10 uM after 48 hr by coulter counter analysis; conditions: SF-295, 48 h, read-out: GI
[19] = tested on: TK-10; experiment: Cytotoxicity against Homo sapiens (human) TK10 cells assessed as growth inhibition at 10 uM after 48 hr by coulter counter analysis; conditions: TK-10, 48 h, read-out: GI
[20] = tested on: OVCAR-5; experiment: Cytotoxicity against Homo sapiens (human) OVCAR5 cells assessed as growth inhibition at 10 uM after 48 hr by coulter counter analysis; conditions: OVCAR-5, 48 h, read-out: GI
[21] = tested on: CAKI-1; experiment: Cytotoxicity against Homo sapiens (human) Caki1 cells assessed as growth inhibition at 10 uM after 48 hr by coulter counter analysis; conditions: CAKI-1, 48 h, read-out: GI
[22] = tested on: DU-145; experiment: Cytotoxicity against Homo sapiens (human) DU145 cells assessed as growth inhibition at 10 uM after 48 hr by coulter counter analysis; conditions: DU-145, 48 h, read-out: GI
[23] = tested on: HCC 2998; experiment: Cytotoxicity against Homo sapiens (human) HCC2998 cells assessed as growth inhibition at 10 uM after 48 hr by coulter counter analysis; conditions: HCC 2998, 48 h, read-out: GI
[24] = tested on: COLO 205; experiment: Cytotoxicity against Homo sapiens (human) COLO205 cells assessed as growth inhibition at 10 uM after 48 hr by coulter counter analysis; conditions: COLO 205, 48 h, read-out: GI
[25] = tested on: SN12C; experiment: Cytotoxicity against Homo sapiens (human) SN12C cells assessed as growth inhibition at 10 uM after 48 hr by coulter counter analysis; conditions: read-out: GI
[26] = tested on: SF-539; experiment: Cytotoxicity against Homo sapiens (human) SF539 cells assessed as growth inhibition at 10 uM after 48 hr by coulter counter analysis; conditions: SF-539, 48 h, read-out: GI
[27] = tested on: HOP-62; experiment: Cytotoxicity against Homo sapiens (human) HOP62 cells assessed as growth inhibition at 10 uM after 48 hr by coulter counter analysis; conditions: HOP-62, 48 h, read-out: GI
[28] = tested on: SK-MEL-5; experiment: Cytotoxicity against Homo sapiens (human) SK-MEL-5 cells assessed as growth inhibition at 10 uM after 48 hr by coulter counter analysis; conditions: SK-MEL-5, 48 h, read-out: GI
[29] = tested on: RXF 393; experiment: Cytotoxicity against Homo sapiens (human) RXF393 cells assessed as growth inhibition at 10 uM after 48 hr by coulter counter analysis; conditions: RXF 393, 48 h, read-out: GI
[30] = tested on: UO-31; experiment: Cytotoxicity against Homo sapiens (human) UO31 cells assessed as growth inhibition at 10 uM after 48 hr by coulter counter analysis; conditions: UO-31, 48 h, read-out: GI
[31] = tested on: LOX IMVI; experiment: Cytotoxicity against Homo sapiens (human) LOXIMVI cells assessed as growth inhibition at 10 uM after 48 hr by coulter counter analysis; conditions: read-out: GI
[32] = tested on: SF-268; experiment: Cytotoxicity against Homo sapiens (human) SF268 cells assessed as growth inhibition at 10 uM after 48 hr by coulter counter analysis; conditions: SF-268, 48 h, read-out: GI
[33] = tested on: MDA-MB-468; experiment: Cytotoxicity against Homo sapiens (human) MDA-MB-468 cells assessed as growth inhibition at 10 uM after 48 hr by coulter counter analysis; conditions: MDA-MB-468, 48 h, read-out: GI
[34] = tested on: SNB-75; experiment: Cytotoxicity against Homo sapiens (human) SNB75 cells assessed as growth inhibition at 10 uM after 48 hr by coulter counter analysis; conditions: SNB-75, 48 h, read-out: GI

Structure (SMILES) | inhibition of growth at 10 µM [1] [%] | inhibition of growth at 10 µM [2] [%] | inhibition of growth at 10 µM [3] [%] | inhibition of growth at 10 µM [4] [%] | inhibition of growth at 10 µM [5] [%] | inhibition of growth at 10 µM [6] [%] | inhibition of growth at 10 µM [7] [%] | inhibition of growth at 10 µM [8] [%] | inhibition of growth at 10 µM [9] [%] | inhibition of growth at 10 µM [10] [%] | inhibition of growth at 10 µM [11] [%] | inhibition of growth at 10 µM [12] [%] | inhibition of growth at 10 µM [13] [%] | inhibition of growth at 10 µM [14] [%] | inhibition of growth at 10 µM [15] [%] | inhibition of growth at 10 µM [16] [%] | inhibition of growth at 10 µM [17] [%] | inhibition of growth at 10 µM [18] [%] | inhibition of growth at 10 µM [19] [%] | inhibition of growth at 10 µM [20] [%] | also measured
O=c1c2ccccc2nc(SCc2nnc(S)n2-c2ccccc2)n1CCc1ccccc1 | < 10 | < 10 | < 10 | 11 | < 10 | < 10 | < 10 | 31 | < 10 | < 10 | < 10 | < 10 | 41 | < 10 | 19 | 30 | 20 | 12 | < 10 | < 10 | inhibition of growth at 10 µM [21]: 17%; inhibition of growth at 10 µM [22]: < 10%; inhibition of growth at 10 µM [23]: < 10%; inhibition of growth at 10 µM [24]: < 10%; inhibition of growth at 10 µM [25]: < 10%; inhibition of growth at 10 µM [26]: < 10%; inhibition of growth at 10 µM [27]: 24%; inhibition of growth at 10 µM [28]: 24%; inhibition of growth at 10 µM [29]: < 10%; inhibition of growth at 10 µM [30]: 30%; inhibition of growth at 10 µM [31]: < 10%; inhibition of growth at 10 µM [32]: < 10%; inhibition of growth at 10 µM [33]: < 10%; inhibition of growth at 10 µM [34]: < 10%
O=c1c2ccccc2nc(SCc2ccc([N+](=O)[O-])cc2)n1CCc1ccccc1 | < 10 | 12 | < 10 | < 10 | < 10 | < 10 | 16 | 19 | < 10 | < 10 | < 10 | < 10 | < 10 | < 10 | 22 | < 10 | 19 | < 10 | < 10 | < 10 | inhibition of growth at 10 µM [21]: 17%; inhibition of growth at 10 µM [22]: 24%; inhibition of growth at 10 µM [23]: < 10%; inhibition of growth at 10 µM [24]: < 10%; inhibition of growth at 10 µM [25]: < 10%; inhibition of growth at 10 µM [26]: < 10%; inhibition of growth at 10 µM [27]: < 10%; inhibition of growth at 10 µM [28]: < 10%; inhibition of growth at 10 µM [29]: < 10%; inhibition of growth at 10 µM [30]: < 10%; inhibition of growth at 10 µM [31]: < 10%; inhibition of growth at 10 µM [32]: < 10%; inhibition of growth at 10 µM [33]: 3%; inhibition of growth at 10 µM [34]: < 10%
O=C1c2ccccc2C(=O)N1CCCSc1nc2ccccc2c(=O)n1CCc1ccccc1 | < 10 | < 10 | < 10 | 15 | < 10 | < 10 | 18 | 16 | < 10 | < 10 | < 10 | < 10 | 20 | < 10 | 26 | 51 | 14 | < 10 | < 10 | < 10 | inhibition of growth at 10 µM [21]: 34%; inhibition of growth at 10 µM [22]: < 10%; inhibition of growth at 10 µM [23]: < 10%; inhibition of growth at 10 µM [24]: < 10%; inhibition of growth at 10 µM [25]: < 10%; inhibition of growth at 10 µM [26]: < 10%; inhibition of growth at 10 µM [27]: < 10%; inhibition of growth at 10 µM [28]: 43%; inhibition of growth at 10 µM [29]: < 10%; inhibition of growth at 10 µM [30]: 19%; inhibition of growth at 10 µM [31]: < 10%; inhibition of growth at 10 µM [32]: < 10%; inhibition of growth at 10 µM [33]: < 10%; inhibition of growth at 10 µM [34]: < 10%
O=c1c2ccccc2nc(SCCN2CCOCC2)n1CCc1ccccc1 | < 10 | < 10 | < 10 | < 10 | < 10 | < 10 | < 10 | < 10 | < 10 | < 10 | < 10 | < 10 | < 10 | < 10 | < 10 | 14 | < 10 | < 10 | < 10 | < 10 | inhibition of growth at 10 µM [21]: < 10%; inhibition of growth at 10 µM [22]: < 10%; inhibition of growth at 10 µM [23]: < 10%; inhibition of growth at 10 µM [24]: < 10%; inhibition of growth at 10 µM [25]: < 10%; inhibition of growth at 10 µM [26]: < 10%; inhibition of growth at 10 µM [27]: < 10%; inhibition of growth at 10 µM [28]: < 10%; inhibition of growth at 10 µM [29]: < 10%; inhibition of growth at 10 µM [30]: 14%; inhibition of growth at 10 µM [31]: < 10%; inhibition of growth at 10 µM [32]: < 10%; inhibition of growth at 10 µM [33]: < 10%; inhibition of growth at 10 µM [34]: < 10%
O=c1c2ccccc2nc(SCCN2CCCCC2)n1CCc1ccccc1 | < 10 | 13 | 14 | 14 | < 10 | < 10 | 13 | 30 | < 10 | < 10 | 11 | < 10 | 17 | < 10 | < 10 | < 10 | 34 | 13 | < 10 | 12 | inhibition of growth at 10 µM [21]: 27%; inhibition of growth at 10 µM [22]: 11%; inhibition of growth at 10 µM [23]: < 10%; inhibition of growth at 10 µM [24]: 25%; inhibition of growth at 10 µM [25]: < 10%; inhibition of growth at 10 µM [26]: < 10%; inhibition of growth at 10 µM [27]: 11%; inhibition of growth at 10 µM [28]: 24%; inhibition of growth at 10 µM [29]: 19%; inhibition of growth at 10 µM [30]: 43%; inhibition of growth at 10 µM [31]: 19%; inhibition of growth at 10 µM [32]: < 10%; inhibition of growth at 10 µM [33]: < 10%; inhibition of growth at 10 µM [34]: 13%
